Results from US9969964B2, “Disease-on-a-chip” (Purdue Research Foundation, priority 2013, dated 2018).

System: T4-2 tumor nodules
Experiment: Apoptosis (TUNEL assay combined with DAPI scoring of pyknotic and karyorrhectic nuclei) of T4-2 tumor nodules treated with chemotherapeutic drugs
Type: cell-based
Conditions: for sensitivity of tumor nodules to drug (apoptosis): T4-2 nodules cocultured with S1 non-neoplastic breast epithelium on flat surfaces compared to monocultures of tumor nodules, FIG. 21 and 22; for sensitivity of cancer cells to drug (apoptosis): T4-2 nodules cocultured with S1 within semicircular hemichannels versus on flat surfaces
From the text: The findings described above prompted a test of the sensitivity of T4-2 tumor nodules to the chemotherapeutic drugs bleomycin (BLM, a radiomimetic agent used in the laboratory to study cellular responses to treatments that compromise genome integrity) and doxorubicin (DOX, an anthracycline used for the treatment of breast cancer). In this study, apoptosis was utilized as an endpoint to evaluate drug responses and was quantified using the TUNEL assay combined with visual scoring for pyknotic and karyorrhectic nuclei via DAPI staining (i.e. nuclear condensation and fragmentation, respectively). Three types of T4-2 nodules were compared: monocultures, cocultures with S1 luminal epithelium on the flat surface of the chip, and cocultures with S1 epithelium in the semicircular hemichannels.
This difference is intriguing and could not be explained by the proliferation status within nodules on flat surfaces and in hemichannels (27.5%±1.8% and 24.2%±2.5% Ki67-positive cells, respectively; P=0.292, unpaired t-test, n>10 nodule sections corresponding to >700 nuclei). […] It is possible that the microenvironment or the geometry in the hemichannels promotes modifications in the nuclear organization of tumor cells, which may influence cellular responses to cytotoxic drugs. This view is supported by the measured differences in nuclear circularity reported above, and is in agreement with early recommendations that nuclear morphometric descriptors, including roundness, should be investigated as possible predictors of response to therapy. The disease-on-a-chip system used for coculture with cancer cells provides a system with potential for improved understanding of cancer development and drug assessment in tissue context.

Molecule | sensitivity of tumor nodules to drug (apoptosis) | sensitivity of cancer cells to drug (apoptosis) | toxicity to T4-2 nodules (drug concentration chosen to ease detection of increased sensitivity to genotoxic stress, should minimally affect cell survival)
COc1cccc2c1C(=O)c1c(O)c3c(c(O)c1C2=O)C[C@@](O)(C(=O)CO)C[C@@H]3O[C@H]1C[C@H](N)[C@H](O)[C@H](C)O1 [DOX, doxorubicin] | increased sensitivity | significantly less | 
bleomycin [BLM] | increased sensitivity | significantly less | low toxicity
